# Test results from ChEMBL document CHEMBL5303573, “Mapping human microbiome drug metabolism by gut bacteria and their genes” (Nature, 2019).
# Key:
# [1] = The drug is tested on Coprococcus comes strain: ATCC27758 for biotransformation. The drug concentrations were measured before and after a 12-h incubation by liquid-chromatography-coupled mass spectrometry (LC–MS); assay type: ADME; design: dose 2 uM, timepoint 0 vs 12 hours; details: 2 µM
# [2] = The drug is tested on Eubacterium rectale strain: ATCC33656 for biotransformation. The drug concentrations were measured before and after a 12-h incubation by liquid-chromatography-coupled mass spectrometry (LC–MS); details: agathobacter rectalis, 2 µM
# [3] = The drug is tested on Anaerotruncus colihominis strain: DSM17241 for biotransformation. The drug concentrations were measured before and after a 12-h incubation by liquid-chromatography-coupled mass spectrometry (LC–MS); details: 2 µM
# [4] = parabacteroides distasonis, 12 h, 2 µM
# Description: The drug is tested on Parabacteroides distasonis strain: ATCC8503 for biotransformation. The drug concentrations were measured before and after a 12-h incubation by liquid-chromatography-coupled mass spectrometry (LC–MS)
# [5] = The drug is tested on Bifidobacterium longum subsp. Infantis strain: CCUG52486 for biotransformation. The drug concentrations were measured before and after a 12-h incubation by liquid-chromatography-coupled mass spectrometry (LC–MS); details: 2 µM
# [6] = bacteroides fragilis, 12 h, 2 µM
# Description: The drug is tested on Bacteroides fragilis strain: 3397 (T10) for biotransformation. The drug concentrations were measured before and after a 12-h incubation by liquid-chromatography-coupled mass spectrometry (LC–MS)
# [7] = The drug is tested on Bacteroides dorei strain: DSM17855 for biotransformation. The drug concentrations were measured before and after a 12-h incubation by liquid-chromatography-coupled mass spectrometry (LC–MS); details: phocaeicola dorei, 2 µM
# [8] = The drug is tested on Collinsella aerofaciens strain: ATCC25986 for biotransformation. The drug concentrations were measured before and after a 12-h incubation by liquid-chromatography-coupled mass spectrometry (LC–MS); details: 2 µM
# [9] = The drug is tested on Bacteroides fragilis strain: HMW615 for biotransformation. The drug concentrations were measured before and after a 12-h incubation by liquid-chromatography-coupled mass spectrometry (LC–MS); details: 2 µM
# [10] = The drug is tested on Bifidobacterium breve strain: DSM20213 for biotransformation. The drug concentrations were measured before and after a 12-h incubation by liquid-chromatography-coupled mass spectrometry (LC–MS); details: 2 µM
# [11] = The drug is tested on Eubacterium hallii strain: DSM3353 for biotransformation. The drug concentrations were measured before and after a 12-h incubation by liquid-chromatography-coupled mass spectrometry (LC–MS); details: anaerobutyricum hallii, 2 µM
# [12] = The drug is tested on Anaerococcus hydrogenalis strain: DSM7454 for biotransformation. The drug concentrations were measured before and after a 12-h incubation by liquid-chromatography-coupled mass spectrometry (LC–MS); details: 2 µM
# [13] = The drug is tested on Bacteroides uniformis strain: ATCC8492 for biotransformation. The drug concentrations were measured before and after a 12-h incubation by liquid-chromatography-coupled mass spectrometry (LC–MS); details: 2 µM
# [14] = The drug is tested on Escherichia coli strain: BW25113 for biotransformation. The drug concentrations were measured before and after a 12-h incubation by liquid-chromatography-coupled mass spectrometry (LC–MS); details: 2 µM
# [15] = The drug is tested on Subdoligranulum variabile strain: DSM15176 for biotransformation. The drug concentrations were measured before and after a 12-h incubation by liquid-chromatography-coupled mass spectrometry (LC–MS); details: 2 µM
# [16] = The drug is tested on Bacteroides fragilis strain: HMW610 for biotransformation. The drug concentrations were measured before and after a 12-h incubation by liquid-chromatography-coupled mass spectrometry (LC–MS); details: 2 µM
# [17] = The drug is tested on Dorea formicigenerans strain: ATCC27755 for biotransformation. The drug concentrations were measured before and after a 12-h incubation by liquid-chromatography-coupled mass spectrometry (LC–MS); details: 2 µM
# [18] = The drug is tested on Clostridium asparagiforme strain: DSM15981 for biotransformation. The drug concentrations were measured before and after a 12-h incubation by liquid-chromatography-coupled mass spectrometry (LC–MS); assay type: ADME; design: dose 2 uM, timepoint 0 vs 12 hours; details: enterocloster asparagiformis, 2 µM
# [19] = The drug is tested on Bacteroides finegoldii strain: DSM17565 for biotransformation. The drug concentrations were measured before and after a 12-h incubation by liquid-chromatography-coupled mass spectrometry (LC–MS); details: 2 µM
# [20] = The drug is tested on Providencia stuartii strain: ATCC25827 for biotransformation. The drug concentrations were measured before and after a 12-h incubation by liquid-chromatography-coupled mass spectrometry (LC–MS); details: 2 µM
SMILES,Bacterial Biotransformation [1],Bacterial Biotransformation [2],Bacterial Biotransformation [3],Bacterial Biotransformation [4],Bacterial Biotransformation [5],Bacterial Biotransformation [6],Bacterial Biotransformation [7],Bacterial Biotransformation [8],Bacterial Biotransformation [9],Bacterial Biotransformation [10],Bacterial Biotransformation [11],Bacterial Biotransformation [12],Bacterial Biotransformation [13],Bacterial Biotransformation [14],Bacterial Biotransformation [15],Bacterial Biotransformation [16],Bacterial Biotransformation [17],Bacterial Biotransformation [18],Bacterial Biotransformation [19],Bacterial Biotransformation [20]
COc1c(C)c2c(c(O)c1C/C=C(\C)CCC(=O)OCCN1CCOCC1)C(=O)OC2 [MYCOPHENOLATE MOFETIL],Compound metabolized,Compound metabolized,Compound metabolized,Compound metabolized,Compound metabolized,Compound metabolized,Compound metabolized,Compound metabolized,Compound metabolized,Compound metabolized,Compound metabolized,Compound metabolized,Compound metabolized,Compound metabolized,Compound metabolized,Compound metabolized,Compound metabolized,Compound metabolized,Compound metabolized,Compound metabolized
CCN(CC)C(=O)/C(C#N)=C/c1cc(O)c(O)c([N+](=O)[O-])c1 [ENTACAPONE],Compound metabolized,Compound metabolized,Compound metabolized,Compound metabolized,Compound metabolized,Compound metabolized,Compound metabolized,Compound metabolized,Compound metabolized,Compound metabolized,Compound metabolized,Compound metabolized,Compound metabolized,Compound metabolized,Compound metabolized,Compound metabolized,Compound metabolized,Compound metabolized,Compound metabolized,Compound metabolized
CN(C)C(=O)Oc1cc(OC(=O)N(C)C)cc(C(O)CNC(C)(C)C)c1 (stereo not given) [BAMBUTEROL],Compound NOT metabolized,Compound NOT metabolized,Compound NOT metabolized,Compound NOT metabolized,Compound NOT metabolized,Compound NOT metabolized,Compound NOT metabolized,Compound NOT metabolized,Compound NOT metabolized,Compound NOT metabolized,Compound NOT metabolized,Compound NOT metabolized,Compound NOT metabolized,Compound NOT metabolized,Compound NOT metabolized,Compound NOT metabolized,Compound NOT metabolized,Compound NOT metabolized,Compound NOT metabolized,Compound NOT metabolized
C#C[C@]1(O)CC[C@H]2[C@@H]3CCC4=Cc5oncc5C[C@]4(C)[C@H]3CC[C@@]21C [DANAZOL],Compound metabolized,Compound metabolized,Compound metabolized,Compound metabolized,Compound metabolized,Compound metabolized,Compound metabolized,Compound metabolized,Compound metabolized,Compound metabolized,Compound metabolized,Compound metabolized,Compound metabolized,Compound metabolized,Compound metabolized,Compound metabolized,Compound metabolized,Compound metabolized,Compound metabolized,Compound metabolized
N[C@@H](Cc1ccc(N(CCCl)CCCl)cc1)C(=O)O,Compound metabolized,Compound metabolized,Compound metabolized,Compound metabolized,Compound metabolized,Compound metabolized,Compound metabolized,Compound metabolized,Compound metabolized,Compound metabolized,Compound metabolized,Compound metabolized,Compound metabolized,Compound metabolized,Compound metabolized,Compound metabolized,Compound metabolized,Compound metabolized,Compound metabolized,Compound metabolized

# Now from value to molecule:
Bacterial Biotransformation [1],Bacterial Biotransformation [2],Bacterial Biotransformation [3],Bacterial Biotransformation [4],Bacterial Biotransformation [5],Bacterial Biotransformation [6],Bacterial Biotransformation [7],Bacterial Biotransformation [8],Bacterial Biotransformation [9],Bacterial Biotransformation [10],Bacterial Biotransformation [11],Bacterial Biotransformation [12],Bacterial Biotransformation [13],Bacterial Biotransformation [14],Bacterial Biotransformation [15],Bacterial Biotransformation [16],Bacterial Biotransformation [17],Bacterial Biotransformation [18],Bacterial Biotransformation [19],Bacterial Biotransformation [20],SMILES
Compound NOT metabolized,Compound NOT metabolized,Compound metabolized,Compound metabolized,Compound NOT metabolized,Compound NOT metabolized,Compound metabolized,Compound metabolized,Compound metabolized,Compound NOT metabolized,Compound metabolized,Compound metabolized,Compound metabolized,Compound metabolized,Compound NOT metabolized,Compound NOT metabolized,Compound NOT metabolized,Compound metabolized,Compound metabolized,Compound metabolized,COc1ccccc1OCCNCC(O)COc1cccc2[nH]c3ccccc3c12 (stereo not given) [CARVEDILOL]
Compound metabolized,Compound NOT metabolized,Compound metabolized,Compound metabolized,Compound metabolized,Compound metabolized,Compound metabolized,Compound metabolized,Compound metabolized,Compound metabolized,Compound NOT metabolized,Compound metabolized,Compound metabolized,Compound metabolized,Compound metabolized,Compound metabolized,Compound metabolized,Compound metabolized,Compound metabolized,Compound metabolized,CC(=O)OCC(=O)NCCCOc1cccc(CN2CCCCC2)c1 [ROXATIDINE ACETATE]
Compound metabolized,Compound metabolized,Compound metabolized,Compound metabolized,Compound metabolized,Compound metabolized,Compound metabolized,Compound metabolized,Compound metabolized,Compound metabolized,Compound metabolized,Compound metabolized,Compound metabolized,Compound metabolized,Compound metabolized,Compound metabolized,Compound metabolized,Compound metabolized,Compound metabolized,Compound metabolized,COc1ccc2[nH]c([S+]([O-])Cc3ncc(C)c(OC)c3C)nc2c1 (stereo not given) [OMEPRAZOLE]
